Test results taken from patent US20230203059A1, “MACROCYCLIC JAK INHIBITOR AND USES THEREOF” (Biopolar Hongye (Guangdong) Pharmaceutical Co. Ltd., priority 2020, published 2023).

Key:
Format in all cases: biochemical
TYK2 = TYK2 (Homo sapiens, UniProt P29597); assay: JAK kinase activity, homogeneous time-resolved fluorescence (TYK2 reaction system); conditions: ATP 2 μM, TYK2 protein 0.2 ng/μL; read-out: TYK 2 activity
Method in brief: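 Activity read as the 665 nm/615 nm ratio after adding EDTA-containing detection mix with anti-phospho-substrate antibody and XL-615. Beforehand, 0.2 ng/μL TYK2, 2 μM ATP, substrate and compound reacted 1 h in pH 7.0 Hepes buffer with MgCl2 and DTT. IC50 fitted with Hill-slope equation.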

JAK2 = JAK2 (Homo sapiens, UniProt O60674); assay: JAK kinase activity, homogeneous time-resolved fluorescence (JAK2 reaction system); conditions: ATP 2 μM, JAK2 protein 0.01 ng/μL
JAK2, sequence (O60674 whole entry): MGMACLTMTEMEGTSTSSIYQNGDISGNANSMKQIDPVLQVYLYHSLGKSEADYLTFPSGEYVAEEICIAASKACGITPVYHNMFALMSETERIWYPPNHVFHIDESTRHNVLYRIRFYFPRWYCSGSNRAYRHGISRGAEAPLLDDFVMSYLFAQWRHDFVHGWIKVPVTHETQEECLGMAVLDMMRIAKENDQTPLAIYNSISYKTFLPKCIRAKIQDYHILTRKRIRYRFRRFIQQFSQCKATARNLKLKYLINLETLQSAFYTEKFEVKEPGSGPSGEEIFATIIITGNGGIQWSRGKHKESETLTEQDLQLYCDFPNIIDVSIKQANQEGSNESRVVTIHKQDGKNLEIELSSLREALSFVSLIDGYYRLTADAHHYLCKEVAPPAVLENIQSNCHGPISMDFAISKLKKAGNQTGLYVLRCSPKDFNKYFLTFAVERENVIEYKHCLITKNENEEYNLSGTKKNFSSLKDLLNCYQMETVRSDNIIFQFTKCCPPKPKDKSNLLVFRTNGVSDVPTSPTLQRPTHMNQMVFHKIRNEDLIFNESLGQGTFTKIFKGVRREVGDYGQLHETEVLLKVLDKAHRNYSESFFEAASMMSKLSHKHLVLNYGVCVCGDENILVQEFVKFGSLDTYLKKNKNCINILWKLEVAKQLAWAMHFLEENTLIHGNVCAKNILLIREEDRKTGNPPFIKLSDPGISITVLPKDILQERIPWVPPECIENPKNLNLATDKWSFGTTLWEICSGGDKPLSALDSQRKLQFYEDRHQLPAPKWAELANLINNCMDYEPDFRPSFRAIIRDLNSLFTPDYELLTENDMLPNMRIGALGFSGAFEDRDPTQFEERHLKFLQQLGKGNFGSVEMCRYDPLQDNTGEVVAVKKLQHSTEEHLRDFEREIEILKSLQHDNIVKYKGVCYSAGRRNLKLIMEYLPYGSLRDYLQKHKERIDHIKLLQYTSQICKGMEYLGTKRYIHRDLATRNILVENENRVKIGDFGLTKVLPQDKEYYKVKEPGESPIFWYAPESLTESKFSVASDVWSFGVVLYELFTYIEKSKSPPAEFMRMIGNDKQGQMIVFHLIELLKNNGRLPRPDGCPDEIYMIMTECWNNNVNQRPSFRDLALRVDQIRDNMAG
Method in brief: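 IC50 derived by Hill-equation fit of the 665/615 nm time-resolved fluorescence ratio after EDTA-containing detection mix with anti-phosphosubstrate antibody. Preceding 1 h reaction contained 2 μM ATP, 0.01 ng/μL JAK2, substrate, 50 mM Hepes pH 7.0, 5 mM MgCl2, 1 mM DTT.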

JAK1 = JAK1 (Homo sapiens, UniProt P23458); assay: JAK kinase activity, homogeneous time-resolved fluorescence (JAK1 reaction system); conditions: ATP 2 μM, JAK1 protein 0.2 ng/μL; read-out: JAK 1 activity
JAK1, sequence (P23458 whole entry): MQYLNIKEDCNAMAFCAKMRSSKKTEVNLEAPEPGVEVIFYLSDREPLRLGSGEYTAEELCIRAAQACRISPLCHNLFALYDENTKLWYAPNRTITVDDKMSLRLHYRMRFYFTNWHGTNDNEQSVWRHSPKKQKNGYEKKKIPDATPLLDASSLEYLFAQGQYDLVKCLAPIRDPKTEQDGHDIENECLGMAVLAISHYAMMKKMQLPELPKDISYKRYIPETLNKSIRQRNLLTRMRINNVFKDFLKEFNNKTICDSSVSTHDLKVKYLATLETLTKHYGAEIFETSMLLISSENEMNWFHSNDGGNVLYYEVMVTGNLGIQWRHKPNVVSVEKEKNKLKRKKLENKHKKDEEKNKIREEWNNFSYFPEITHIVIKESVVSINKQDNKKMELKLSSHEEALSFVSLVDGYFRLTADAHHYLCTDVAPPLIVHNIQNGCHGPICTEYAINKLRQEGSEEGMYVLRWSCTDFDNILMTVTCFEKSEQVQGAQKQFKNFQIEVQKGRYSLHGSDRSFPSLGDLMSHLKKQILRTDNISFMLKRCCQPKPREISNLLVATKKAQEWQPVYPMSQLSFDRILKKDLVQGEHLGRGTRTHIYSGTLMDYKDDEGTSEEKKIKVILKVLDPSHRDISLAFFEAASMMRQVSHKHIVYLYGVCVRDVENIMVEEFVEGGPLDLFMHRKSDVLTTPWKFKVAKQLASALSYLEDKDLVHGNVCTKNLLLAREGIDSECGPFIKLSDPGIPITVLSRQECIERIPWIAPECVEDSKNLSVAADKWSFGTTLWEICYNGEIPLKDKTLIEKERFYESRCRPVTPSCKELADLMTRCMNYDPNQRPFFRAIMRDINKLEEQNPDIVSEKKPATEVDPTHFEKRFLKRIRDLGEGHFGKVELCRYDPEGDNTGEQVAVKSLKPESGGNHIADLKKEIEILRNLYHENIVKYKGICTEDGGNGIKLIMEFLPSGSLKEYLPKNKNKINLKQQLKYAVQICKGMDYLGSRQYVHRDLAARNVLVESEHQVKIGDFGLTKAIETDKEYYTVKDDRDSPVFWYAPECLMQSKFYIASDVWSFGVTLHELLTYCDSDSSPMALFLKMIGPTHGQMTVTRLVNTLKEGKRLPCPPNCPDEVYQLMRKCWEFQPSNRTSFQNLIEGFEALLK
Method in brief: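 Kinase activity read as the 665 nm/615 nm time-resolved fluorescence ratio (320 nm excitation) after EDTA-containing antibody and XL-615 addition. Reaction ran 1 h at pH 7.0 (Hepes, MgCl2, DTT) with 0.2 ng/μL JAK1 and ATP at 2 μM. IC50 derived by Hill-slope fit.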

JAK3 = target: T1, JAK3 (Homo sapiens, UniProt P52333); assay: JAK kinase activity, homogeneous time-resolved fluorescence (JAK3 reaction system); conditions: ATP 2 μM, JAK3 protein 0.04 ng/μL; read-out: JAK 3 activity
T1 sequence (P52333 1-1124): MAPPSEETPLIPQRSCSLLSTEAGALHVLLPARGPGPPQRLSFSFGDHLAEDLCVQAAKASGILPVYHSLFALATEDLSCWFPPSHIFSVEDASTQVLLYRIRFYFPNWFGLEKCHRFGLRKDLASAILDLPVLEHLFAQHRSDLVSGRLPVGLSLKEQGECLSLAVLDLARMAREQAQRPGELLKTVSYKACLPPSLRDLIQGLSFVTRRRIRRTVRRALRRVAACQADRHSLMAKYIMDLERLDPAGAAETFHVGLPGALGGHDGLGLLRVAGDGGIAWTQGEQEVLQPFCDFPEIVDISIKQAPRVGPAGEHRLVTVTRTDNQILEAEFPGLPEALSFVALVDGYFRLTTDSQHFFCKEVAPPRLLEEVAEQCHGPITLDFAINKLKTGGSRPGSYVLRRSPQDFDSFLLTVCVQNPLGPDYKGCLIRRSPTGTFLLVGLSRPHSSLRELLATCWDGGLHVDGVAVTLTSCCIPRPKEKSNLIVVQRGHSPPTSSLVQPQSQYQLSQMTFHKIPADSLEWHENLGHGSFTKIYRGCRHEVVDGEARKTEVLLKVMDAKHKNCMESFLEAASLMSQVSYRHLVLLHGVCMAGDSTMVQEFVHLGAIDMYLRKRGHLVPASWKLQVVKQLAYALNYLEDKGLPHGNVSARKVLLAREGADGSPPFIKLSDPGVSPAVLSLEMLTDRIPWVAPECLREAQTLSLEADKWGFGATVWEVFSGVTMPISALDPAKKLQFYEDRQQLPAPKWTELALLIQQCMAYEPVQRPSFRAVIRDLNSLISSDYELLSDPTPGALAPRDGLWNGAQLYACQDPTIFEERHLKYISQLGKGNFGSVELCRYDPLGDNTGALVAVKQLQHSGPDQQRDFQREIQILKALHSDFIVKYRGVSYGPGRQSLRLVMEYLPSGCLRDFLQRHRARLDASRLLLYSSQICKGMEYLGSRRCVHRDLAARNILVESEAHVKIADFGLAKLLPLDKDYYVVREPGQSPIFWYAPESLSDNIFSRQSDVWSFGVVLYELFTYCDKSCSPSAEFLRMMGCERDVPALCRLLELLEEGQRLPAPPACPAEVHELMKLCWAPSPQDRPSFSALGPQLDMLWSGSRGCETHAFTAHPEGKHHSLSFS

TYK2, sequence (P29597 whole entry): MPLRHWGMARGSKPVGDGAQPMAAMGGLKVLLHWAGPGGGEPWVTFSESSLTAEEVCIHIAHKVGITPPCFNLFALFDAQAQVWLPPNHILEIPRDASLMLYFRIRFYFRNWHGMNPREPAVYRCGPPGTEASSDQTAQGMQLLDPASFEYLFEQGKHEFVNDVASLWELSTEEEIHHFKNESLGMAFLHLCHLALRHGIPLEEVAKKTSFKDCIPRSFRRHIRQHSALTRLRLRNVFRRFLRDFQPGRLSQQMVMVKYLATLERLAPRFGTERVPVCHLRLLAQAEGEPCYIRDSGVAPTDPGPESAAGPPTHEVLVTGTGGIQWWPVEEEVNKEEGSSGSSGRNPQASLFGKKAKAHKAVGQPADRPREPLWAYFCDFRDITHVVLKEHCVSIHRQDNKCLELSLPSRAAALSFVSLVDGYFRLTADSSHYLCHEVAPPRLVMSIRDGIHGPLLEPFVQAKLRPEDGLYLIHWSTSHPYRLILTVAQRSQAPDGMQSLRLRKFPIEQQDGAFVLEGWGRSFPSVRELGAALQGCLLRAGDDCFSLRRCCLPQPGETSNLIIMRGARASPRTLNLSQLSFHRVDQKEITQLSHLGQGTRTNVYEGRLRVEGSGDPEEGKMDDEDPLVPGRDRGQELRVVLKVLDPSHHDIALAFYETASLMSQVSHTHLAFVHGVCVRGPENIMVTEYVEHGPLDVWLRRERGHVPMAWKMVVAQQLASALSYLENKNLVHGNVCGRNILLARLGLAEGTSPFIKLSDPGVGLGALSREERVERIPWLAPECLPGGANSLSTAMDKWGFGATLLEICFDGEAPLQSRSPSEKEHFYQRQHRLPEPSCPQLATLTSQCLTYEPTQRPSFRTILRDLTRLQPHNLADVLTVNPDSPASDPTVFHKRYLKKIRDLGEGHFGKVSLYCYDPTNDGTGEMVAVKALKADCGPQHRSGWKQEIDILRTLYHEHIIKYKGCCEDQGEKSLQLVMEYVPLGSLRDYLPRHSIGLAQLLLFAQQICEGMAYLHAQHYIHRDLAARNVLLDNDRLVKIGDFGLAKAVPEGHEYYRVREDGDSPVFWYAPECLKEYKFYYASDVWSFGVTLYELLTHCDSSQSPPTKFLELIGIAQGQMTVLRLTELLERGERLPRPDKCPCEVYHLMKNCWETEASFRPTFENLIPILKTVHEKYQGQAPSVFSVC

Row | IC50 (TYK2) [nM] | IC50 (JAK2) [nM] | IC50 (JAK1) [nM] | IC50 (JAK3) [nM] | Compound
1 | > 10000 | 1000 to 10000 | > 10000 | 101 to 1000 | O=C1NCCCCOCc2cc(ccc2OCC2CCCOC2)Nc2nccc(n2)-c2ccc1cc2[N+](=O)[O-] (stereo not drawn) [Example 146, 1^2-nitro-4^4-((tetrahydro-2H-pyran-3-yl)methoxy)-6-oxa-3,11-diaza-2(4,2)-pyrimidina-1(1,4),4(1,3)-dibenzenacyclododecaphan-12-one]
2 | 1000 to 10000 | 101 to 1000 | 101 to 1000 | < 10 | Nc1cc2ccc1-c1ccnc(n1)Nc1ccc(OCC3CCCOC3)c(c1)COCCCCNC2=O (stereo not drawn) [Example 147]
3 | > 10000 | 101 to 1000 | 1000 to 10000 | < 10 | Nc1cc2ccc1-c1ccnc(n1)Nc1ccc(OCc3cccc4c3OCC4)c(c1)COCCCCNC2=O [Example 148, 1^2-amino-4^4-((2,3-dihydrobenzofu-ran-7-yl)methoxy)-6-oxa-3,11-dia-za-2(4,2)-pyrimidina-1(1,4),4(1,3)-dibenzenacyclododecaphan-12-one]
4 | > 10000 | 1000 to 10000 | 1000 to 10000 | 11 to 100 | CC1CCNC(=O)c2ccc(c(N)c2)-c2ccnc(n2)Nc2ccc(OCC3CCCCC3)c(c2)COC1 (stereo not drawn) [Example 149, 1^2-amino-4^4-(cyclohexylmethoxy)-8-methyl-6-oxa-3,11-diaza-2(4,2)-pyrimidina-1(1,4),4(1,3)-dibenzena-cyclododecaphan-12-one]
5 | > 10000 | > 10000 | > 10000 | 1000 to 10000 | O=C1NCCCCOCc2cc(ccc2OCc2cccc3c2CCO3)Nc2nccc(n2)-c2ccc1cc2[N+](=O)[O-] [Example 150, 4^4-((2,3-dihydroxybenzofuran-4-yl)methoxy)-1^2-nitro-6-oxa-3,11-diaza-2(4,2)-pyrimidina-1(1,4),4(1,3)-dibenzenacyclododecaphan-12-one]
6 | 1000 to 10000 | 101 to 1000 | 1000 to 10000 | 11 to 100 | Nc1cc2ccc1-c1ccnc(n1)Nc1ccc(OCc3cccc4c3CCO4)c(c1)COCCCCNC2=O [Example 151, 1^2-amino-4^4-((2,3-dihydrobenzofu-ran-4-yl)methoxy)-6-oxa-3,11-dia-za-2(4,2)-pyrimidina-1(14),4(1,3)-dibenzenacyclododecaphan-12-one]
7 | > 10000 | 1000 to 10000 | 1000 to 10000 | 101 to 1000 | O=C1NCCCCOCc2cc(ccc2OCc2ccccc2F)Nc2nccc(n2)-c2ccc1cc2[N+](=O)[O-] [Example 152, 4^4-((2-fluorobenzyl)oxy)-1^2-nitro-6-oxa-3,11-diaza-2(4,2)-pyrimidina-1(1,4),4(1,3)-dibenzenacyclodo-decaphan-12-one]
8 | > 10000 | 101 to 1000 | 1000 to 10000 | < 10 | Nc1cc2ccc1-c1ccnc(n1)Nc1ccc(OCc3ccccc3F)c(c1)COCCCCNC2=O [Example 153, 1^2-amino-4^4-((2-fluorobenzyl)oxy)-6-oxa-3,11-diaza-2(4,2)-pyrimidi-na-1(1,4),4(1,3)-dibenzenacyclo-dodecaphan-12-one]
9 | > 10000 | 1000 to 10000 | 1000 to 10000 | 101 to 1000 | O=C1NCCCCOCc2cc(ccc2OCC2Cc3ccccc3O2)Nc2nccc(n2)-c2ccc1cc2[N+](=O)[O-] (stereo not drawn) [Example 154, 4^4-((2,3-dihydroxybenzofuran-2-yl)methoxy)-1^2-nitro-6-oxa-3,11-diaza-2(4,2)-pyrimidina-1(1,4),4(1,3)-dibenzenacyclododecaphan-12-one]
10 | 1000 to 10000 | 101 to 1000 | 1000 to 10000 | 11 to 100 | Nc1cc2ccc1-c1ccnc(n1)Nc1ccc(OCC3Cc4ccccc4O3)c(c1)COCCCCNC2=O (stereo not drawn) [Example 155, 1^2-amino-4^4-((2,3-dihydroxybenzo-furan-2-yl)methoxy)-6-oxa-3,11-di-aza-2(4,2)-pyrimidina-1(1,4),4(1,3)-dibenzenacyclododecaphan-12-one]
11 | > 10000 | 101 to 1000 | 1000 to 10000 | 11 to 100 | COc1ccccc1COc1ccc2cc1COCCCCNC(=O)c1ccc(c(N)c1)-c1ccnc(n1)N2 [Example 156, 1^2-amino-4^4-((2-methoxybenzyl)oxy)-6-oxa-3,11-diaza-2(4,2)-pyri-midina-1(1,4),4(1,3)-dibenzena-cyclododecaphan-12-one]
12 | 101 to 1000 | 11 to 100 | 101 to 1000 | < 10 | CC1CCOCc2cc(ccc2OC2CC2)Nc2nccc(n2)-c2ccc(cc2N)C(=O)NC1 (stereo not drawn) [Example 157, 1^2-amino-4^4-cyclopropoxy-9-meth-yl-6-oxa-3,11-diaza-2(4,2)-pyrimi-dina-1(1,4),4(1,3)-dibenzenacyclo-dodecaphan-12-one]
13 | > 10000 | > 10000 | 1000 to 10000 | 101 to 1000 | CC1CCOCc2cc(ccc2OC2CC2)Nc2nccc(n2)-c2ccc(cc2[N+](=O)[O-])C(=O)NC1 (stereo not drawn) [Example 158, 4^4-cyclopropoxy-9-methyl-1^2-nitro-6-oxa-3,11-diaza-2(4,2)-pyrimi-dina-1(1,4),4(1,3)-dibenzenacyclo-dodecaphan-12-one]
14 | 1000 to 10000 | 101 to 1000 | 1000 to 10000 | 11 to 100 | Nc1cc2ccc1-c1ccnc(n1)Nc1ccc(OCc3cccc4c3COC4)c(c1)COCCCCNC2=O [Example 160, 1^2-amino-4^4-((1,3-dihydroisobenzo-furan-4-yl)methoxy)-6-oxa-3,11-diaza-2(4,2)-pyrimidina-1(1,4),4(1,3)-dibenzenacyclododecaphan-12-one]
15 | > 10000 | 1000 to 10000 | 1000 to 10000 | 1000 to 10000 | Nc1cc2ccc1-c1ccnc(n1)Nc1ccc(Oc3cnc4[nH]ccc4c3)c(c1)COCCCCNC2=O [Example 161, 4^4-((1H-pyrrolo[2,3-b]pyridin-5-yl)oxy)-1^2-amino-6-oxa-3,11-diaza-2(4,2)-pyrimidina-1(1,4),4(1,3)-di-benzenacyclododecaphan-12-one]
16 | 1000 to 10000 | 101 to 1000 | 1000 to 10000 | 101 to 1000 | CC1CCOCc2cc(ccc2OC2CCCOC2)Nc2nccc(n2)-c2ccc(cc2[N+](=O)[O-])C(=O)NC1 (stereo not drawn) [Example 162, 9-methyl-1^2-nitro-4^4-((tetrahydro-2H-pyran-3-yl)oxy)-6-oxa-3,11-di-aza-2(4,2)-pyrimidina-1(1,4),4(1,3)-dibenzenacyclododecaphan-12-one]
17 | > 10000 | 1000 to 10000 | 1000 to 10000 | 1000 to 10000 | O=C1NCCCCOCc2cc(ccc2OCC2COC2)Nc2nccc(n2)-c2ccc1cc2[N+](=O)[O-] [Example 163, 1^2-nitro-4^4-(oxetan-3-ylmethoxy)-6-oxa-3,11-diaza-2(4,2)-pyrimidina-1(1,4),4(1,3)-dibenzenacyclo-dodecaphan-12-one]
18 | 1000 to 10000 | 101 to 1000 | 1000 to 10000 | 11 to 100 | Nc1cc2ccc1-c1ccnc(n1)Nc1ccc(OCC3COC3)c(c1)COCCCCNC2=O [Example 164, 1^2-amino-4^4-(oxetan-3-ylmethoxy)-6-oxa-3-diaza-2(4,2)-pyrimidina-1(1,4),4(1,3)-dibenzenacyclo-dodecaphan-12-one]
